# Laboratory results from PMC10981695, “The thylakoid proton antiporter KEA3 regulates photosynthesis in response to the chloroplast energy status” (Nature Communications, 2024).
# pKd: −log10 of the molar value.
# How the values were obtained:
# [1] = biological target: T1, RCT (regulatory C-terminus of KEA3, KEA3 AA495-776) (Arabidopsis thaliana, UniProt Q9M0Z3); assay: temperature-related intensity change (TRIC), RED-tris-NTA labelled His-tag, one-site fit; type: binding
# T1 sequence (Q9M0Z3 495-776): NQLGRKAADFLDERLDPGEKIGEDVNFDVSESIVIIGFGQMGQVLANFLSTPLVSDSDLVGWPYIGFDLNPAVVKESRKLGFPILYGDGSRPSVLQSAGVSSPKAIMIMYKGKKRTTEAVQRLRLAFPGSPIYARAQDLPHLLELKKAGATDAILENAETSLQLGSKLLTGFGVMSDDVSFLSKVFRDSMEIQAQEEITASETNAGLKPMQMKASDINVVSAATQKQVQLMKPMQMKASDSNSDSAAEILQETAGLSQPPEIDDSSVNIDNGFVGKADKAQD
# Text: temperature-related intensity change (TRIC), RED-tris-NTA labelled His-tag, one-site fit on RCT (regulatory C-terminus of KEA3, KEA3 AA495-776)
# KEA3 = biological target: T2, KEA3 (Arabidopsis thaliana, UniProt Q9M0Z3); assay: affinity pull-down with ATP-linked agarose beads, immunoblot; type: biochemical; details: solubilized thylakoids; ATP immobilised via linker
# T2 construct: native full-length KEA3 in detergent-solubilized wild-type thylakoid membranes, detected with specific KEA3 antibody
# T2 sequence (Q9M0Z3 73-776): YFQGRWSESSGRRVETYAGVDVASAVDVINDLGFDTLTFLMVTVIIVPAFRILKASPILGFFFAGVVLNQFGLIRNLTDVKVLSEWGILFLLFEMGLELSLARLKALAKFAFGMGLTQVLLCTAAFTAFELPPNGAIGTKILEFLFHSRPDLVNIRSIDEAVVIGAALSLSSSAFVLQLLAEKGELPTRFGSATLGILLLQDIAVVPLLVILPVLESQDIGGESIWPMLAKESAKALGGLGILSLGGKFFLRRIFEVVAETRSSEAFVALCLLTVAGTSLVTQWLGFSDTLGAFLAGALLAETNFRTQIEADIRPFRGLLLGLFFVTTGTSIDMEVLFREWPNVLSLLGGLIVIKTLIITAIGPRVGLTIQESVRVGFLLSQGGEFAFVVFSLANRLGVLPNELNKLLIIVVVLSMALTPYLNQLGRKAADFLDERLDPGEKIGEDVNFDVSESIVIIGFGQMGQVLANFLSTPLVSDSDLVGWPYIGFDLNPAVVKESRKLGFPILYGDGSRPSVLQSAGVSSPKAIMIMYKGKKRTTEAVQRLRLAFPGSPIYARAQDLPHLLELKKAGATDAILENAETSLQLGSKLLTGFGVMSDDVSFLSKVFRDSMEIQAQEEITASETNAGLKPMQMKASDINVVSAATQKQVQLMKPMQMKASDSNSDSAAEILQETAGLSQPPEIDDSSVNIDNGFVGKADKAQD
# [2] = biological target: T1, RCT (regulatory C-terminus of KEA3, KEA3 AA495-776); assay: differential scanning fluorimetry (nanoDSF, intrinsic fluorescence); type: binding; details: pH 8.0, PBS; 50 and 500 µM ligand
pKd [1],Structure (SMILES),"affinity pull-down with ATP-linked agarose beads, immunoblot (KEA3)",ΔTM [2]
4.42,NC(=O)C1=CN([C@@H]2O[C@H](COP(=O)(O)OP(=O)(O)OC[C@H]3O[C@@H](n4cnc5c(N)ncnc54)[C@H](OP(=O)(O)O)[C@@H]3O)[C@@H](O)[C@H]2O)C=CC1 [NADPH],,
4.38,Nc1ncnc2c1ncn2[C@@H]1O[C@H](COP(=O)(O)OP(=O)(O)OP(=O)(O)O)[C@@H](O)[C@H]1O [ATP],KEA3 was detected on three of four different types of ATP-linked agarose beads,Addition of either ADP or ATP yielded a concentration-dependent increase in the ΔTM of RCT
4.29,Nc1ncnc2c1ncn2[C@@H]1O[C@H](COP(=O)(O)OP(=O)(O)O)[C@@H](O)[C@H]1O [ADP],,Addition of either ADP or ATP yielded a concentration-dependent increase in the ΔTM of RCT
5.10,NC(=O)c1ccc[n+]([C@@H]2O[C@H](COP(=O)(O)OP(=O)(O)OC[C@H]3O[C@@H](n4cnc5c(N)ncnc54)[C@H](OP(=O)(O)O)[C@@H]3O)[C@@H](O)[C@H]2O)c1 [NADP^+],,
